# Measurements published in patent US8633226B2, “Piperidinyl derivative as a modulator of chemokine receptor activity” (Bristol-Myers Squibb Company, priority 2008, dated 2014).
# Read-outs that look alike come from different tables or passages of the source.
# How the values were obtained:
# [1] = In vitro metabolism assay, human liver microsomes, Assay Conditions A; assay type: in vitro ADME; settings: 0.5 μM compound, 10 minutes, 37° C.
# Procedure: Test compound is received as a 3.5 mM stock solution in 100 percent DMSO. Compound is diluted to create a 50 μM acetonitrile (ACN) solution containing 1.4% DMSO, which is then used as a 100× stock for incubation with microsomes. Each compound is tested in duplicate separately in each of three species in the Metabolic Stability-Human, Rat, and Mouse assay suite or as individual species in the Metabolic Stability-Dog or Metabolic Stability-Monkey suites. Compound, NADPH and liver microsome solutions are combined for incubation in three steps:
# 152 μL of liver microsome suspension, protein concentration of 1.1 mg/mL in 100 mM NaPi, pH 7.4, 6.6 mM MgCl2 buffer, is pre-warmed at 37° C.
# • 1) 1.7 μL of 50 μM compound (98.6% ACN, 1.4% DMSO) is added to the same tube and pre-incubated at 37° C. for 5 minutes. • 2) The reaction is initiated by the addition of 17 μL of pre-warmed 10 mM NADPH solution in 100 mM NaPi, pH 7.4. • 3) Reaction components are mixed well, and 75 μL are immediately transferred into 150 μl quench/stop solution (zero-time point, T0). Reactions are incubated at 37° C. for 10 minutes and then an additional 75 μL aliquot is transferred into 150 μL quench solution. Acetonitrile containing 100 μM DMN (a UV standard for injection quality control), is used as the quench solution to terminate metabolic reactions. • 4) Quenched mixtures are centrifuged at 1500 rpm (˜500×g) in an Allegra X-12 centrifuge, SX4750 rotor (Beckman Coulter Inc., Fullerton, Calif.) for fifteen minutes to pellet denatured microsomes. A volume of 90 μL of supernatant extract, containing the mixture of parent compound and its metabolites, is then transferred to a separate 96-well plate for UV-LC/MS-MS analysis to determine the percent of parent compound that is remaining in the mixture. • 5)
# Human PXR = Human PXR (Homo sapiens (Human), UniProt O75469); assay: PXR transactivation assay; assay type: cell-based; settings: HepG2 cells, CYP3A-Luc reporter; reported as EC60
# From the text: The cell culture medium used is DMEM. […] Charcoal/dextran treated fetal bovine serum (FBS) was purchased from Hyclone (Logan, Utah). HepG2 cells were obtained from ATCC (Manassas, Va.). Human PXR-pcDNA3 and luciferase reporter containing CYP3A4 promoter, CYP3A-Luc, were generated at Bristol-Myers Squibb. White tissue culture (TC)-surface 384-well plates were purchased from Perkin Elmer (Boston, Mass.). Luciferase substrate (Steady-Glo) was purchased from Promega (Madison, Wis.). Control compounds rifampicin, mifepristone, and sulfinpyrazone were purchased from Sigma (St. Louis, Mo.).
# Culture of HepG2 cells is performed in T175 flasks using DMEM containing 10% FBS. The transfection mixture contains 1 μg/mL of PXR-pcDNA3 plasmid DNA, 20 μg/ml of Cyp3A-Lue plasmid DNA, 90 μL/mL of Lipofectamine 2000, and serum-free medium. After incubating at room temperature for 20 minutes, the transfection mixture (1 ml per flask) is applied to the cells in fresh medium (20 mL per flask), and flasks incubated at 37° C. (5% CO2) overnight.
# The flasks are then tapped vigorously to break up cell aggregates. After the addition of 8 mL of DMEM containing 5% charcoal/dextran-treated FBS, the entire mixture is transferred to conical tubes. Cells are then centrifuged at 1000 rpm for 5 minutes. Cell pellets are resuspended to a final count of ˜7×10^6 cells/ml, in freezing media (DMEM containing 20% serum and 10% DMSO). The cell suspension is aliquoted into 15-mL polypropylene tubes, 5 mL per tube. Cells are slowly frozen by placing in a Styrofoam-insulated container at −80° C. overnight. Vials are transferred to an Ultracold (−140° C.) freezer after 24 hours for long-term storage.
# Vials of cryopreserved cells are thawed rapidly in a warm water bath for five minutes. Cells are pooled and diluted to 50 mL in a 50-mL conical vial. The thawed cells are centrifuged at 1500 rpm for 5 minutes to collect the cells and the supernatant discarded. Cells are then resuspended in fresh Media II (DMEM containing 5% charcoal/dextran-treated FBS, 1% Penicillin/Streptomycin, 100 μM Non-essential Amino Acids, 1 mM Sodium Pyruvate, and 2 mM L-Glutamine), counted using the Guava Cell Counter, and diluted to 1.6×10^5 cells/ml in the same media.
# Fifty microliters of cell mixture is added to wells in columns 1-23 of white tissue-culture treated 384-well plates containing 0.25 μL of test compound dissolved in 100% DMSO. Fifty microliters of Media II is added to wells in column 24. The plates are incubated at 37° C. (5% CO2) for 24 hours, then 5 μL of Alamar Blue reagent (Trek Diagnostics, Cat #00-100) is added to each well. Plates are then incubated an additional two hours at 37° C., 5% CO2 and then one hour at room temperature. […] After the fluorescence is measured, 25 μL of luciferase substrate (Steady-Glo, Promega) is added to each well. The plates are incubated for fifteen minutes at room temperature, after which the luminescence is read on a PheraStar (BMG Labtech) plate reader.
# Rifampicin (10 μM), a well-known agonist of PXR, is included in each plate as an internal standard and positive control. The data is then expressed as percent control (% CTRL), where the control signal is the signal from the 10 μM rifampicin and the blank signal is that from the DMSO vehicle. % CTRL=((Compound signal−Blank signal)/(Control signal−Blank signal))*100
# The EC50 is defined as the concentration corresponding to half of the maximal response derived from the fitted 20-point curve as determined using a four-parameter logistic regression model. Additionally, compounds may also be reported as EC20 or EC60.
# Human CCR1 = Human CCR1 (Homo sapiens (Human), UniProt P32246); assay: Human CCR1 THP-1 binding assay; settings: [125I]-MIP-1α competition, THP-1 cells
# Procedure: For radioligand competition studies, a final concentration of 1×10^5 THP-1 monocytic leukemia cells are combined with 100 μg of LS WGA PS beads (Amersham, Cat.#: RPNQ 0260) in 40 μL of assay buffer (RPMI 1640 without phenol red, 50 mM HEPES, 5 mM MgCl2, 1 mM CaCl2, 0.1% BSA). The THP-1 cell/bead mixture was added to each well of a 384-well assay plate (PerkinElmer, Cat. #:6007899) containing test compound in 3-fold serial dilution, with final concentrations ranging from 8 μM to 0.14 nM. A final concentration of 0.1 nM [^125I]-MIP-1α (PerkinElmer, Cat. #NEX298) in 20 μL assay buffer was added to the reaction. Unlabeled MIP-1α was added in excess to some wells to determine non-specific binding. Sealed assay plates were incubated at room temperature for 12 h then analyzed by LEADseeker™.
# The competition data of the test compound over a range of concentrations is plotted as percentage inhibition of radioligand specifically bound in the absence of test compound (percent of total signal). After correcting for non-specific binding, IC50 values are determined. The IC50 value is defined as the concentration of test compound needed to reduce [^125I]-MIP-1α specific binding by 50% and is calculated using the four parameter logistic equation to fit the normalized data. The Ki values are determined by application of the Cheng-Prusoff equation to the IC50 values, where Ki=IC50/(1+ligand concentration/Kd). The Kd of [^125I]-MIP-1α in THP-1 cells is 0.1 nM. Each experiment was run in duplicate.
# [2] = biological target: human cardiac L-type Ca channel (α1C) and its β subunit (Homo sapiens (Human), UniProt Q13936); assay: L-type calcium channel whole-cell patch-clamp assay; assay type: cell-based; settings: HEK-293 cells, protein-free buffer
# Procedure: In addition to the potential for interaction with the L-type calcium channel, whole-cell patch-clamp was used to directly measure inward calcium currents in HEK-293 cells stably expressing the cloned human cardiac L-type Ca channel (α1C) and its β subunit. Effects of compounds were calculated by measuring inhibition of peak current. Experiments were carried out using an aqueous buffer at pH 7.4 and at room temperature. There is no protein in the buffer and drug concentrations reported are nominal free drug levels.
# [3] = biological target: human cardiac sodium channel SCN5A (Homo sapiens (Human), UniProt Q14524); assay: Sodium channel whole-cell patch-clamp assay; assay type: cell-based; settings: HEK-293 cells expressing human cardiac sodium channel SCN5A, pH 7.4, protein-free buffer, read-out: Na, % inh
# Procedure: Whole-cell patch-clamp was used to directly measure inward sodium currents in HEK-293 cells expressing the human cardiac sodium channel, SCN5A. After reach steady-state effect in the presence of drug, rate-dependence was assessed by stimulation at frequencies of 1 Hz and 4 Hz. Experiments were carried out using an aqueous buffer at pH 7.4 and at room temperature. There is no protein in the buffer and drug concentrations reported are nominal free drug levels. Test article was evaluated up to 10 μM (protein-free buffer). Rate-dependence of inhibition was assessed by stimulation at frequencies of 1 Hz and 4 Hz.
# hERG = hERG (Homo sapiens (Human), UniProt Q12809); assay: hERG patch clamp assay; assay type: cell-based; settings: HEK-293 cells stably expressing hERG, pH 7.4, protein-free buffer, read-out: hERG, % inh @ 30 μM
# Procedure: Whole-cell patch-clamp was used to directly measure hERG tail currents in HEK-293 cells stably expressing the cloned hERG potassium channel α subunit. Effects of compounds were calculated by measuring inhibition of peak tail current. Experiments were carried out using an aqueous buffer with pH 7.4 at room temperature. There was no protein in the assay buffer. The test concentrations reported are nominal free drug levels.
# Protein binding, human = assay type: in vitro ADME
# Protein binding, rabbit = assay type: in vitro ADME
# anesthetized rabbits = assay: Electrocardiography in anesthetized rabbits; assay type: in vivo; settings: anesthetized rabbit; for Cmax: Free drug at QT effect dose / Cmax: Free drug at NOEL dose: iv
# Procedure: (§1) A dose-response study of test compound was conducted in anesthetized rabbits to assess the cardiac electrophysiologic profile established in the cellular ion channel assays.
# (§2) Experiments were performed in propofol-fentanyl anesthetized closed-chest male rabbits. A body surface electrocardiogram (ECG) and an intra-cardiac His-bundle electrogram were continuously monitored and recorded during the studies, using a PoNeMah system and a Prucka electrophysiological recording system, respectively. Test compound was prepared on the day of study in a vehicle of PEG400:ethanol:water (1:1:1) at a dosing concentration of 30 mg/mL. Test compound (n=3) or vehicle (n=3) was given intravenously over 5 minutes via an infusion pump at incremental doses of 3, 10 and 30 mg/kg. The interval between doses was 10 minutes, allowing for a 5-minute test agent infusion and a 5-minute rest period. Blood was sampled at baseline (pre-drug infusion) and immediately at the end of each infusion. For the 30 mg/kg dose, additional blood samples were taken at 10, 20 and 30 minutes after the end of infusion.
# (§3) PR interval, QRS duration and QT interval were averaged from a 1 minute ECG recording period at time of blood sampling. QT interval was corrected for heart rate effects using both Fridericia (QTcf) and Van der Water (QTcv) formulae. AH and HV intervals, representing A-V node conduction and His-Purkinje conduction, respectively, were assessed by manual measurements from the His-bundle electrogram. Data were expressed as percent change from pre-drug baseline (mean±SEM) for PR, QRS, AH and HV intervals as well as delta change from the pre-drug infusion baseline (mean±SEM) for QTc intervals. Changes of ≧10% in PR, QRS, and AH intervals, and 20% in HV interval, as well as >10 ms in QTc interval are considered significant based on experience with the model.
# [4] = Electrocardiography in anesthetized rabbits; assay type: in vivo; settings: male, blood, anesthetized rabbit, iv
# Procedure: as §1, §2, §3
# Human CCR1, sequence (P32246 whole entry): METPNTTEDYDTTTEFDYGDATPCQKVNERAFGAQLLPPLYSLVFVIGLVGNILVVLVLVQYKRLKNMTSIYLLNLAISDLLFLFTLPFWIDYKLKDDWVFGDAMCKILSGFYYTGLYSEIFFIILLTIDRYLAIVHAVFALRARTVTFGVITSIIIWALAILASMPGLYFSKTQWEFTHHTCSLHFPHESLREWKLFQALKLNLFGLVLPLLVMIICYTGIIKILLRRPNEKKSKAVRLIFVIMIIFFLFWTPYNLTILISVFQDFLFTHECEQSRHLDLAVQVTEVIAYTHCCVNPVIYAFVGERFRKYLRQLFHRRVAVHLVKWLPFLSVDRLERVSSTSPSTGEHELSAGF
# Human PXR, sequence (O75469 whole entry): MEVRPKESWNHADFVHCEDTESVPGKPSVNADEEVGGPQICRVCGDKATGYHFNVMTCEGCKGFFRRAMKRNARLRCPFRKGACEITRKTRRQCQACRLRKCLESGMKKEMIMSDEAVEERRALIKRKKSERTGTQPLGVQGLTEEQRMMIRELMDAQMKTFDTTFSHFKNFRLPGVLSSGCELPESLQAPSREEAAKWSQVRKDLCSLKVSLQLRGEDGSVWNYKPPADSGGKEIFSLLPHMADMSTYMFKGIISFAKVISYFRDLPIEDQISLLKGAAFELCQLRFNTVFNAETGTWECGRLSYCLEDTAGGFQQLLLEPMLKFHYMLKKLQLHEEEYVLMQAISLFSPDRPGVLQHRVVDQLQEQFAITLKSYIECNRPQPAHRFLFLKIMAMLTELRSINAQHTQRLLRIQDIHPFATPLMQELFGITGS
# human cardiac sodium channel SCN5A, sequence (Q14524 whole entry): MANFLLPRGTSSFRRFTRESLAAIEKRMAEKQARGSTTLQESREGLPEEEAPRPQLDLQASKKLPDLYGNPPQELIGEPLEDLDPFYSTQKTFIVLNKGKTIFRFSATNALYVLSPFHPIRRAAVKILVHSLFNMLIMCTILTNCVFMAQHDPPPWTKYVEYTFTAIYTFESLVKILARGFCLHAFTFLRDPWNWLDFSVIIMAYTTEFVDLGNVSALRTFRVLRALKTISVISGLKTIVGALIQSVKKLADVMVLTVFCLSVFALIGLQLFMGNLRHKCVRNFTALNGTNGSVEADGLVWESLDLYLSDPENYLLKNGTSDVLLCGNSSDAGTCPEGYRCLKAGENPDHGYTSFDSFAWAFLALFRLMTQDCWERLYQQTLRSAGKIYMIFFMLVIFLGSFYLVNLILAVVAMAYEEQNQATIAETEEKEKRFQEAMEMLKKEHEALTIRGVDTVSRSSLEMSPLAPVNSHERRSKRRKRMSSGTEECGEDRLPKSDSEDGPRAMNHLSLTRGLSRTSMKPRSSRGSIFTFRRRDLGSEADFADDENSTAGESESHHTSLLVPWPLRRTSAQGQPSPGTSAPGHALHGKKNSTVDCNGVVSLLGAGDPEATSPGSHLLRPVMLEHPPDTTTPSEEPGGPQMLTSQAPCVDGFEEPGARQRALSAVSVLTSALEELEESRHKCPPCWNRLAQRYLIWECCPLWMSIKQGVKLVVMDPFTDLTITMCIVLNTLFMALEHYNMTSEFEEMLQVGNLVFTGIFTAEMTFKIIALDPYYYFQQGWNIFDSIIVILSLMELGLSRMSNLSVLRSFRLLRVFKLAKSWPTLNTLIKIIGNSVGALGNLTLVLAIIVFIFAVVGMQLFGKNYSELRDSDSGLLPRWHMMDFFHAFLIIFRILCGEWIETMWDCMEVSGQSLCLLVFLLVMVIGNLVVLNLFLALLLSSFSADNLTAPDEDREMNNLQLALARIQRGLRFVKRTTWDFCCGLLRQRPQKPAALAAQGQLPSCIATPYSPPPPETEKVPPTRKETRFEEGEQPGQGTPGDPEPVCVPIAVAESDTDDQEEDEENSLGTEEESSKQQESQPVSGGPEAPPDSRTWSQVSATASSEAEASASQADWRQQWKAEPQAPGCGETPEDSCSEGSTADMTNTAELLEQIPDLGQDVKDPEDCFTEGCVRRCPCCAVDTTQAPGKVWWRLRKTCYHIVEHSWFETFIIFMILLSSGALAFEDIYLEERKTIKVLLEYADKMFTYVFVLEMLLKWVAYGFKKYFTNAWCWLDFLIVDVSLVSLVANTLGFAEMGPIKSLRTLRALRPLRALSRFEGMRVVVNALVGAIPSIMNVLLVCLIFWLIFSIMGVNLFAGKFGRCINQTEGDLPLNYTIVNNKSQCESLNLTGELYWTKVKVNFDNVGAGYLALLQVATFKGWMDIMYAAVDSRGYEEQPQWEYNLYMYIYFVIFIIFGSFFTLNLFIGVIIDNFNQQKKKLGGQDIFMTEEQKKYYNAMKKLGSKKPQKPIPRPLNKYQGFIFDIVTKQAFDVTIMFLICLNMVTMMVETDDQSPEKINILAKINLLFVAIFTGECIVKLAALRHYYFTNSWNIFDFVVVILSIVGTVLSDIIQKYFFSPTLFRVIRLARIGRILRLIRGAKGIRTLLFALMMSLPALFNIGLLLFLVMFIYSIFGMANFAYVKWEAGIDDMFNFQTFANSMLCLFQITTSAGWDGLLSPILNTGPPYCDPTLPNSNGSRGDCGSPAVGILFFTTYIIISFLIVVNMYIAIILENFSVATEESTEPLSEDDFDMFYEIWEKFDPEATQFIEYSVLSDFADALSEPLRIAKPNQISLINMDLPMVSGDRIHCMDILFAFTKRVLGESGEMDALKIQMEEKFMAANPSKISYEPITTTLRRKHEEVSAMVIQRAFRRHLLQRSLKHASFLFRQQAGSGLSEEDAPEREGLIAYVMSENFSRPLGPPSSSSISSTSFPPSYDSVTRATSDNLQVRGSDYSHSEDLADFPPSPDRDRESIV
# hERG, sequence (Q12809 whole entry): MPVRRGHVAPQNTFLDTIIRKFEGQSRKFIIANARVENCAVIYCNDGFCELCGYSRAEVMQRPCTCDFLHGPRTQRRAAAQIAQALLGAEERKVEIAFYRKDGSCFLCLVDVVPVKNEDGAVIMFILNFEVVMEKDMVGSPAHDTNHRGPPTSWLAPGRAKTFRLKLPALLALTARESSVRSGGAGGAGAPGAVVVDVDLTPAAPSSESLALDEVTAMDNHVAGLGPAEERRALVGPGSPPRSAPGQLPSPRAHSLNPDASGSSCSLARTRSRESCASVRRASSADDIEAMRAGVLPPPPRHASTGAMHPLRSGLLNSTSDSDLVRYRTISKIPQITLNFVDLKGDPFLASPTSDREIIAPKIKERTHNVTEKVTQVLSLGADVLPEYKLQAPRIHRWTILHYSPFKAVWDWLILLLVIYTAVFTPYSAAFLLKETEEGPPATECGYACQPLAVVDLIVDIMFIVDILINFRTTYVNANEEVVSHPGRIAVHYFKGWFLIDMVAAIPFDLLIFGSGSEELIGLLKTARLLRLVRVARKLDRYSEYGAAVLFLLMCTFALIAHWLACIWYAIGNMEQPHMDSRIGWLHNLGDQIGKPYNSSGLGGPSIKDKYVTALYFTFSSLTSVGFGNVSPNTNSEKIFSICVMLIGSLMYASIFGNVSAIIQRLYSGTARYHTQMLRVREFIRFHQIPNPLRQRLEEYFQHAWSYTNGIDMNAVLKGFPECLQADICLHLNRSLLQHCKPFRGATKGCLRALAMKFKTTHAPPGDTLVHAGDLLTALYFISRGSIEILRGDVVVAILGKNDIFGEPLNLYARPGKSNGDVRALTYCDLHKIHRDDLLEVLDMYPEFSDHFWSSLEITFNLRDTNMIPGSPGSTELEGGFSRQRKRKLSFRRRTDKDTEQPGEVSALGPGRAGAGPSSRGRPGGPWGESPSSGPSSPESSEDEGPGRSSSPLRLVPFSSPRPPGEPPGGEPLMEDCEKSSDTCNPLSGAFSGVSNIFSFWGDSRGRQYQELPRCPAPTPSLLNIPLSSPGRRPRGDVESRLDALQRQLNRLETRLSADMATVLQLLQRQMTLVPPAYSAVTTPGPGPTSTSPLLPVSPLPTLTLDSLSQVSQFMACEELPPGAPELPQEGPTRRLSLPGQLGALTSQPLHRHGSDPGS
SMILES,Human Liver Microsomal Metabolism % remaining (Assay Conditions A) [1],PXR EC60 (Human PXR) [nM],Ki (Human CCR1) [nM],"Ca, % inh ([2]; 10 μM) [% @ 10 μM]",inhibition at 10 µM [3] [%],inhibition at 30 µM (hERG) [%],"fraction unbound (Protein binding, human)","fraction unbound (Protein binding, rabbit)",NOEL dose (No Observed Effect Level) (anesthetized rabbits; iv infusion) [mg/kg],QT effect Dose (anesthetized rabbits; iv infusion) [mg/kg],"QTcf, delta (anesthetized rabbits; iv infusion, at QT effect dose 30 mg/kg) [ms]",Cmax: Free drug at QT effect dose (anesthetized rabbits; 30 mg/kg) [µM],Cmax: Free drug at NOEL dose (anesthetized rabbits; NOEL dose 10 mg/kg) [µM],"Cmax ([4]; 30 mg/kg, read-out: Cmax: Total drug at QT effect dose) [µM]","Cmax ([4]; NOEL dose 10 mg/kg, read-out: Cmax: Total drug at NOEL dose) [µM]","Ca, % inh ([2]; 30 μM) [% @ 30 μM]","QTcf, delta (anesthetized rabbits; iv infusion, at QT effect dose 10 mg/kg) [ms]",Cmax: Free drug at QT effect dose (anesthetized rabbits; 10 mg/kg) [µM],Cmax: Free drug at NOEL dose (anesthetized rabbits; NOEL not identified (<10 mg/kg)) [µM],"Cmax ([4]; 10 mg/kg, read-out: Cmax: Total drug at QT effect dose) [µM]"
CC(C)NC(=O)N[C@@H](C(=O)N1CC[C@](O)(c2ccc(Cl)cc2)C(C)(C)C1)C(C)C [#850],99% (A),10200,0.5,,,,,,,,,,,,,,,,,
CC[C@@H](C)NC(=O)N[C@@H](C(=O)N1CC[C@](O)(c2ccc(Cl)cc2)C(C)(C)C1)C(C)C [#897],59% (A),>50000,2.1,,,,,,,,,,,,,,,,,
CC(C)[C@@H](NC(=O)c1cccc(S(N)(=O)=O)c1)C(=O)N1CC[C@](O)(c2ccc(Cl)cc2)C(C)(C)C1 [EX# 491],,,2.1,22,13,27,0.05,0.06,10,30,17,5.5,3.1,138,77,,,,,
CC(C)[C@@H](NC(=O)[C@@H]1CC[C@@H](O)C1)C(=O)N1CC[C@](O)(c2ccc(Cl)cc2)C(C)(C)C1 [EX# 572],,,1.5,,25,32,0.16,0.13,,10,,,,,,19,22,6.3,< 6.3,48.6
